These results are taken from patent publication US11773086B2, “Fungal modulators” (TRUSTEES OF BOSTON UNIVERSITY, priority 2020, dated 2023).

A short description of one series: Tolerability. In kind it is in vivo. As to conditions: 10 mg/Kg BID for 4 days.
For the next series, the system named is C. albicans (SN95). Nature of the series: Azoffluxin dose-response with background fluconazole. The conditions noted are these: fluconazole-sensitive laboratory strain SN95, background FLC 4 μg/mL. It counts as cell-based, Candida albicans. The protocol: FIGS. 2A-2E illustrate the above-described screening of the BU-CMD which identified azoffluxin as a fluconazole (FLC) potentiator against C. auris. […] Growth, as determined by optical density at 600 nm (OD600), is plotted in the presence of each CMD compound alone on the y-axis and in combination with FLC on the x-axis. Dotted lines represent 7-median absolute deviations from the median for each condition. […] FIG. 2B depicts the synergistic interactions. […] Growth was measured by the OD600 and normalized to the no drug control (see color bar). The fractional inhibitory concentration index (FICI) was calculated to determine the chemical interaction, with a value below 0.5 indicating synergy. […] FIG. 2D depicts FLC Etest strips in the presence and absence of 50 μM azoffluxin. […]
Compound potency was assessed alone by dose response assays or in combination with another compound by dose-response matrixes in 96-well plates, or 384-well, flat-bottom, microtiter plates (Corning) as previously described. […] Growth was quantified by measuring OD600 and corrected for medium background. All strains were assessed in biological duplicate experiments with technical duplicates. […] For dose-response matrixes fractional inhibitory concentration index at 90% growth inhibition (FICI90) was calculated as previously described. […]

The test system of a further series is C. auris. The series can be described thus: Sterol composition by LC-MS. In kind it is cell-based, Candida auris. As to conditions: 18 hours. The text has this:
FIGS. 3A-3B, and 4A-4B illustrate azoffluxin increases fluconazole (FLC) bioavailability by inhibiting Cdr1-mediated efflux in C. auris, as described above. FIG. 3A depicts the relative abundance of specific sterols determined in C. auris after an 18-hour treatment with the respective compounds (⋅ indicates combo treatment concentrations) using LC-MS. Values are plotted relative to the internal standard of cholesterol and error bars indicate standard deviation between technical triplicates. Significance was determined by an unpaired student t-test of each condition to untreated, (*) indicates a p-value<0.05 and (**) indicates a p-value<0.01. FIG. 3B depicts the intracellular concentrations of FLC and azoffluxin measured after treatment for 1 hour (conditions as in FIG. 3A) Error bars indicate standard deviation between technical triplicates. Significance was determined by an unpaired student t-test, (**) indicates a p-value<0.01. FIG. 4A depicts the quantified relative expression of a panel of putative efflux pumps in C. auris Ci6684. Expression of CDR1 (B9J08_000164), MDR1 (B9J08_003981), CDR4-1 (B9J08_000479), CDR4-2 (B9J08_002451), SNQ2-1 (B9J08_001125), and SNQ2-2 (B9J08_004452) was measured by RT-qPCR. […] FIG. 4B depicts expression of CDR1 (B9J08_000164) and CDR4-1 (B9J08_000479) measured by quantitative real-time PCR (RT-qPCR). […]

Take `C=C(C)C[C@@H](O)COc1cc2c(cc1C1(c3cc4c(cc3OC[C@H](O)CC(=C)C)OCO4)C(=O)Nc3cc(F)ccc31)OCO2` [CMLD012336]: in “Tolerability”, the tolerability result is given as “well tolerated”. The “enhancement of fluconazole activity” value in the series on C. albicans (SN95) is recorded as “did not enhance the activity of fluconazole”. For the same compound, in the series with C. auris (azoffluxin + low fluconazole vs low fluconazole alone), the “increase in 14-α-methyl-3,6-diol” value stood at 4 fold. The “abundance of ergosterol, lanosterol, 14-α-methyl-3,6-diol” value in the series on C. auris (azoffluxin alone vs untreated) is listed as “No significant increases”.
